Consider ten compounds from ChEMBL document CHEMBL1201862, “PubChem BioAssay data set” (2004).

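Protocol summary: plate cells (96-well), add compound at 5 concentrations, incubate 48 h, interpolate endpoints linearly. Abbreviation: GI50, concentration required for 50% inhibition of growth.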 Active and inactive are the calls of the source. Rule as the data show it: active = GI50 up to about 1.1 µM and inactive = higher. Where only a bound is given, the exact number is not on record here.

What all share (test): NCI anticancer screen, dose series, 48 h
In assay [1] the test system is Hs-578T.
For assay [2], the system named is HOP-62.
The test system of assay [3] is DU-145.
Assay [4] relates to TK-10.
Assay [5] concerns CCRF-CEM.
In assay [6] the test system is CAKI-1.
In assay [7] the test system is MCF7.
For assay [8], the system named is M14.
Assay [9] relates to NCI-H226.
Assay [10] relates to SK-OV-3.
Assay [11] has as its system UO-31.
Assay [12] relates to RXF 393.
Assay [13] has as its system MDA-N.
The test system of assay [14] is A498.
Assay [15] relates to A549.
Assay [16] deals with SW-620.
The test system of assay [17] is OVCAR-8.
In assay [18] the test system is HOP-92.
The subject of assay [19] is IGROV-1.
The test system of assay [20] is HCT-15.

In the case of `Fc1ccc(C(OCCN2CCC3CCC(C2)N3C/C=C/c2cccnc2)c2ccc(F)cc2)cc1` (stereo not given), the GI50 in assay [1] was 12 µM (inactive); in assay [2], 14.2 µM (inactive); in assay [3] it was 15.8 µM (inactive); in assay [4], 11.5 µM (inactive); in assay [5], 4.11 µM (inactive); in assay [6], 12 µM (inactive). Besides, the GI50 in assay [7] is 11 µM (inactive); in assay [8], 2.53 µM (inactive); in assay [9], 12.1 µM (inactive); in assay [10], 14.7 µM (inactive); in assay [11], 1.88 µM (inactive); in assay [12], 5.28 µM (inactive). The GI50 in assay [13] is 11.6 µM (inactive); in assay [14], 14.3 µM (inactive); in [15], 11.8 µM (inactive); in assay [16], 10.1 µM (inactive); in assay [17] it was 13 µM (inactive); in assay [18], 13.4 µM (inactive). The figures for the GI50 in assay [19] and in [20] were 13.3 µM (inactive) and 10 µM, respectively.

Regarding `Cc1ccc([S+]([O-])(=Nc2ccccc2)C(C(C)C)C(C)(C)Cl)cc1` (stereo not given), the GI50 in assay [1] is 29.6 µM (inactive); in assay [2] it was > 50 µM (inactive); in assay [3], > 50 µM (inactive); in [4], 21.4 µM (inactive); in assay [5], 9.1 µM (inactive); in [6], 14.5 µM (inactive). Besides, the GI50 in assay [7] was 20.6 µM (inactive); in assay [8] it was 18.9 µM (inactive); in assay [9], 2.72 µM (inactive); in assay [10] it was > 50 µM (inactive); in assay [11] it was 18.8 µM (inactive); in assay [12], 30.1 µM (inactive). For the same compound, the GI50 in assay [13] was 16 µM (inactive); in assay [14], 18.5 µM (inactive); in assay [15] it was 16.2 µM (inactive); in [16], 20.9 µM (inactive); in assay [17] it was > 50 µM (inactive); in [18], 30.1 µM (inactive). The GI50 in assay [19] is > 50 µM (inactive); in assay [20], 17 µM.

As to `CC1(C)CC(C)(C)C1=NNC(N)=O`, the GI50 in assay [1], in assay [2], in assay [3], in [4], in assay [5] and in assay [6] was > 100 µM (inactive) throughout. In addition, the GI50 in assay [7], in assay [8], in [9], in assay [10], in [11] and in assay [12] was > 100 µM (inactive) throughout. The GI50 in assay [13], in assay [14], in assay [15], in assay [16], in assay [17] and in [18] was > 100 µM (inactive) each time. Also, the GI50 was > 100 µM (inactive) in assay [19] and above 100 µM in assay [20].

As for `O=[N+]([O-])c1cccc2nc3ccccc3c(NCCC[N+]3([O-])CCCCC3)c12`, the GI50 in assay [1] is 0.82 µM (active); in assay [2], 0.927 µM (active); in assay [3], 0.35 µM (active); in assay [4] it was 3.06 µM (inactive); in assay [5] it was 0.546 µM (active); in assay [6], 20 µM (inactive). The GI50 in assay [7] was 0.176 µM (active); in [8], 1.2 µM (inactive); in assay [9], 0.592 µM (active); in assay [10] it was 1.02 µM (active); in [11], 12.9 µM (inactive); in assay [12], 0.647 µM (active). In addition, the GI50 in assay [13] is 0.176 µM (active); in assay [14] it was 0.804 µM (active); in assay [15], 0.521 µM (active); in assay [16], 0.468 µM (active); in assay [17], 1.85 µM (inactive); in assay [18] it was 0.275 µM (active). For the same compound, the GI50 was 0.394 µM (active) in assay [19] and 16 µM in assay [20].

On to `O=[N+]([O-])/C(C(Cl)=C(Cl)Cl)=C(/Cl)SCc1ccccc1`, for which the GI50 in assay [1] is 4.48 µM (inactive); in assay [2], 15.2 µM (inactive); in assay [3], 17.3 µM (inactive); in [4], 5.86 µM (inactive); in [5], 0.202 µM (active); in [6] it was 3.18 µM (inactive). In addition, the GI50 in assay [7] is 0.495 µM (active); in [8], 1.83 µM (inactive); in assay [9], 25.2 µM (inactive); in [10], 21.2 µM (inactive); in [11], 2.22 µM (inactive); in assay [12], 3.01 µM (inactive). Further, the GI50 was 1.84 µM (inactive) in assay [13]; 24.3 µM (inactive) in assay [14]; 16.3 µM (inactive) in assay [15]; 2.18 µM (inactive) in assay [16]; 1.34 µM (inactive) in assay [17]; 4.33 µM (inactive) in [18]. Also, the figures for the GI50 in [19] and in assay [20] were 20.7 µM (inactive) and 5 µM, respectively.

With `COC(=O)CN(CC(O)C(NC(C)=O)C(O)C=O)C(=O)OCc1ccccc1` (stereo not given), the GI50 in [1], in [2], in assay [3], in assay [4], in assay [5] and in [6] was > 100 µM (inactive) each time. For the same compound, the GI50 in [7], in [8], in assay [9], in [10], in [11] and in assay [12] was > 100 µM (inactive) in each case. Besides, the GI50 in assay [13], in assay [14], in assay [15], in assay [16], in assay [17] and in assay [18] was > 100 µM (inactive) throughout. The GI50 in assay [19] is > 100 µM (inactive); in [20], above 31.6 µM.

For the compound `OC1(c2ccccc2)CSc2ncnn21` (stereo not given), the GI50 is > 100 µM (inactive) in assay [1]; > 100 µM (inactive) in assay [2]; 41.1 µM (inactive) in assay [3]; > 100 µM (inactive) in [4]; > 100 µM (inactive) in assay [5]; > 100 µM (inactive) in assay [6]. The GI50 in [7], in [8], in [9], in assay [10], in [11] and in assay [12] was > 100 µM (inactive) in each case. Also, the GI50 in assay [13], in [14], in [15], in assay [16], in assay [17] and in [18] was > 100 µM (inactive) throughout. The GI50 in assay [19] is > 100 µM (inactive); in assay [20], above 100 µM.

For `Cc1ccc(N2C(=O)CC(=O)N(NC(=O)C(C)Oc3ccccc3C)C2=S)cc1` (stereo not given), the GI50 in assay [1] was > 100 µM (inactive); in assay [2], > 100 µM (inactive); in [3], > 100 µM (inactive); in assay [4] it was > 100 µM (inactive); in [5], 1.6 µM (inactive); in assay [6], > 100 µM (inactive). Further, the GI50 in assay [7], in assay [8], in [9], in assay [10], in assay [11] and in assay [12] was > 100 µM (inactive) each time. The GI50 in assay [13] is 94.8 µM (inactive); in assay [14], > 100 µM (inactive); in [15], > 100 µM (inactive); in assay [16], > 100 µM (inactive); in assay [17], > 100 µM (inactive); in [18], > 100 µM (inactive). Besides, the figures for the GI50 in [19] and in assay [20] were > 100 µM (inactive) and above 100 µM, respectively.

For the compound `c1cc(-c2ccc(-c3ccsc3)s2)cs1`, the GI50 was 40.5 µM (inactive) in assay [1]; 39.6 µM (inactive) in [2]; > 100 µM (inactive) in assay [3]; 76.4 µM (inactive) in assay [4]; 12.9 µM (inactive) in assay [5]; 45.4 µM (inactive) in assay [6]. Also, the GI50 in assay [7] is 50.5 µM (inactive); in assay [8], 31 µM (inactive); in assay [9] it was 47.5 µM (inactive); in assay [10], > 100 µM (inactive); in assay [11], 28.1 µM (inactive); in assay [12] it was 73.1 µM (inactive). Besides, the GI50 in assay [13] was > 100 µM (inactive); in [14] it was 46.6 µM (inactive); in assay [15] it was 22.4 µM (inactive); in assay [16], 44.3 µM (inactive); in assay [17], 48.8 µM (inactive); in [18], > 100 µM (inactive). Further, the GI50 is 80.2 µM (inactive) in [19] and above 100 µM in [20].

In the case of `CC(C)OC(=O)c1ccc(CCC2=CC(=O)C=CC2=O)cc1`, the GI50 in assay [1] is 13 µM (inactive); in assay [2] it was 20.3 µM (inactive); in assay [3], 15.2 µM (inactive); in assay [4] it was 9.73 µM (inactive); in [5] it was 0.697 µM (active); in assay [6], 1.98 µM (inactive). In addition, the GI50 in [7] was 15.5 µM (inactive); in assay [8], 15.2 µM (inactive); in assay [9], 15.9 µM (inactive); in assay [10], 34.8 µM (inactive); in assay [11] it was 4.5 µM (inactive); in assay [12], 11.8 µM (inactive). Further, the GI50 in assay [13] is 10.4 µM (inactive); in assay [14] it was 23 µM (inactive); in assay [15], 25.4 µM (inactive); in assay [16], 4.69 µM (inactive); in assay [17], 7.21 µM (inactive); in assay [18], 5.05 µM (inactive). The figures for the GI50 in assay [19] and in assay [20] were 13.9 µM (inactive) and 8.81 µM, respectively.
